Where two headings read alike, the source gives them in different places.
Assays:
[1] = tested on: phenylquinone-induced writhing in mice; experiment: Phenylquinone Writhing Test; type: in vivo, female white mice; settings: Mus musculus, read-out: Phenylquinone Writhing ED50
Protocol: A standard procedure for detecting and comparing the analgesic activity of compounds in this series for which there is a good correlation with human efficacy is the standard phenylquinone writhing test modified from Siegmund, et al., Proc. Soc. Exp. Biol. Med., 95, 729 (1957). A test compound suspended in 1% methylcellulose was given orally to fasted (17-21 hours) female white mice, 5-20 animals per double blind test. Aqueous (0.01% phenyl-p-benzoquinone) phenylquinone, 0.20 ml per mouse, was injected intraperitoneally 6 minutes before observations were begun. […] The effective analgesic dose for 50% of the mice (ED50) was calculated by the moving average method of Thompson, W. R., Bact. Rev., 11, 115-145 (1947); the time of peak activity was determined for many of the compounds. Data for some of the compounds is summarized in Tables II and III together with data for some standard analgetic antiinflammatory drugs.

[2] = tested on: adjuvant-induced arthritis in rats; experiment: Established Adjuvant-Induced Arthritis in Rats; type: in vivo, Charles River Lewis male rats; settings: for ED50: 168 h, read-out: Adjuvant Arthritis ED50 % Decrease From Control Paw Volume
[3] = daily oral dose 45 mg/kg, 7 days, rat, footnote 1 p < .001, footnote 2 p < .05 vs control
[4] = Table III, oral, fasted female white mice
[5] = Table III, oral daily, 7 days, rat, from dose-response regression lines

Compound | ED50 ([1]; po) [mg/kg] | ED50 ([2]; Rattus norvegicus, po) [mg/kg] | also measured
CC(=O)Oc1ccccc1C(=O)O [Aspirin, reference compound] | 135 | – | –
COc1ccc(-c2cc([Si](C)(C)C)sc2-c2ccc(OC)cc2)cc1 [Example 1, 2,3-Bis(4-methoxyphenyl)-5-(trimethylsilyl)thiophene] | 0.19 | 8 | –
COc1ccc(-c2cc([SiH](C)C)sc2-c2ccc(OC)cc2)cc1 [Example 2, 2,3-Bis(4-methoxyphenyl)-5-(dimethylsilyl)thiophene] | 2.1 | 14.5 | –
C[Si](C)(C)c1cc(-c2ccc(F)cc2)c(-c2ccc(F)cc2)s1 [Example 3] | 4.5 | – | Adjuvant Arthritis Percent Decrease From Control Paw Volume ([2]; daily oral dose 27 mg/kg, 7 days, rat, p < .001 vs control (Student's t)): 37%
C[Si](C)(C)c1cc(-c2ccccc2)c(-c2ccccc2)s1 [Example 4] | 15 | 45 | –
Cc1ccc(-c2cc([Si](C)(C)C)sc2-c2ccc(C)cc2)cc1 [Example 5] | 135 | – | Adjuvant Arthritis Percent Decrease From Control Paw Volume [2, 3]: 44%
CSc1ccc(-c2sc([Si](C)(C)C)cc2-c2ccc(F)cc2)cc1 [Example 6] | – | – | Adjuvant Arthritis Percent Decrease From Control Paw Volume ([2]; daily oral dose 81 mg/kg, 7 days, rat, p < .001 vs control (Student's t)): 42%
C=C[Si](C)(C)c1cc(-c2ccc(OC)cc2)c(-c2ccc(OC)cc2)s1 [Example 7, 2,3-bis(4-methoxyphenyl)-5-(ethenyldimethylsilyl)thiophene] | 0.23 | 6.8 | –
C=CC[Si](C)(C)c1cc(-c2ccc(OC)cc2)c(-c2ccc(OC)cc2)s1 [Example 8, 2,3-bis(4-methoxyphenyl)-5-[(2-propenyl)dimethylsilyl]thiophene] | 0.76 | 9.4 | –
COc1ccc(-c2cc([Si](C)(C)CCC(F)(F)F)sc2-c2ccc(OC)cc2)cc1 [Example 9] | – | 30 | –
CC[Si](CC)(CC)c1cc(-c2ccc(OC)cc2)c(-c2ccc(OC)cc2)s1 [Example 10] | 5.2 | 25 | –
COc1ccc(-c2cc([Si](C)(C)C(C)(C)C)sc2-c2ccc(OC)cc2)cc1 [Example 11] | > 108 | 40 | –
COc1ccc(-c2cc([Si](C)(C)c3ccccc3)sc2-c2ccc(OC)cc2)cc1 [Example 12] | < 108 | 55 | –
COc1ccc(-c2cc([Si](C)(C)Cc3ccccc3)sc2-c2ccc(OC)cc2)cc1 [Example 13] | – | – | Adjuvant Arthritis Percent Decrease From Control Paw Volume [2, 3]: 24%
COc1ccc(-c2cc([Si](C)(C)OC)sc2-c2ccc(OC)cc2)cc1 [Example 21, 2,3-Bis(4-methoxyphenyl)-5-(methoxydimethylsilyl)thiophene] | 3.8 | 9.8 | –
CC(C)Cc1ccc(C(C)C(=O)O)cc1 (centres unmarked) [Ibuprofen, reference compound] | – | – | ED50 [1, 4]: 10 mg/kg; ED50 [2, 5]: 100 mg/kg
COc1ccc2c(c1)c(CC(=O)O)c(C)n2C(=O)c1ccc(Cl)cc1 [Indomethacin, reference compound] | 0.35 | 0.3 | –
CCCCC1C(=O)N(c2ccccc2)N(c2ccccc2)C1=O [Phenylbutazone, reference compound] | – | – | ED50 [1, 4]: 80 mg/kg; ED50 [2, 5]: 10 mg/kg

Source: US4432974A, “Antiinflammatory and/or analgesic 2,3-diaryl-5-silyl thiophenes” (E. I. Du Pont de Nemours and Company, priority 1982, dated 1984)
